Measurements published in patent US20220125051A1, “PRE-HARVEST DESICCATION METHOD” (SYNGENTA CROP PROTECTION AG, priority 2019, published 2022).
Like-named read-outs stand apart in the source and are kept apart here.

Experiments:
Assay in all cases: Post-emergence efficacy, Method A
Assay type in all cases: in vivo
[1] = tested on: Euphorbia heterophylla (EPHHL); conditions: evaluated after 13 days; for pest or weed control at 500 g/ha: Euphorbia heterophylla, post-emergence, 312 h
Protocol: (§1) Seeds of a variety of test species were sown in standard soil in pots. After cultivation for 14 days (post-emergence) under controlled conditions in a glasshouse (at 24/16° C., day/night; 14 hours light; 65% humidity), the plants were sprayed with an aqueous spray solution derived from the dissolution of the technical active ingredient formula (I) in a small amount of acetone and a special solvent and emulsifier mixture referred to as IF50 (11.12% Emulsogen EL360 TM+44.44% N-methylpyrrolidone+44.44% Dowanol DPM glycol ether), to create a 50 g/I solution which was then diluted to required concentration using 0.25% or 1% Empicol ESC70 (Sodium lauryl ether sulphate)+1% ammonium sulphate as diluent. The test plants were then grown in a glasshouse under controlled conditions (at 24/16° C., day/night; 14 hours light; 65% humidity) and watered twice daily. After 13 days the test was evaluated (100=total damage to plant; 0=no damage to plant).
(§2) Ipomoea hederacea (IPOHE), Euphorbia heterophylla (EPHHL), Chenopodium album (CHEAL), Amaranthus palmeri (AMAPA), Lolium perenne (LOLPE), Digitaria sanguinalis (DIGSA), Eleusine indica (ELEIN), Echinochloa crus-galli (ECHCG), Setaria faberi (SETFA)

[2] = tested on: Setaria faberi (SETFA); conditions: evaluated after 13 days; for pest or weed control at 500 g/ha: Setaria faberi, post-emergence, 312 h
Protocol: as §1, §2

[3] = tested on: Digitaria sanguinalis (DIGSA); conditions: evaluated after 13 days; for pest or weed control at 500 g/ha: Digitaria sanguinalis, post-emergence, 312 h
Protocol: as §1, §2

[4] = tested on: Eleusine indica (ELEIN); conditions: evaluated after 13 days; for pest or weed control at 500 g/ha: Eleusine indica, post-emergence, 312 h
Protocol: as §1, §2

[5] = tested on: Ipomoea hederacea (IPOHE); conditions: evaluated after 13 days; for pest or weed control at 500 g/ha: Ipomoea hederacea, post-emergence, 312 h
Protocol: as §1, §2

[6] = tested on: Amaranthus palmeri (AMAPA); conditions: evaluated after 13 days; for pest or weed control at 500 g/ha: Amaranthus palmeri, post-emergence, 312 h
Protocol: as §1, §2

[7] = tested on: Chenopodium album (CHEAL); conditions: evaluated after 13 days; for pest or weed control at 500 g/ha: Chenopodium album, post-emergence, 312 h
Protocol: as §1, §2

[8] = tested on: Lolium perenne (LOLPE); conditions: evaluated after 13 days; for pest or weed control at 500 g/ha: Lolium perenne, post-emergence, 312 h
Protocol: as §1, §2

[9] = tested on: Echinochloa crus-galli (ECHCG); conditions: evaluated after 13 days; for pest or weed control at 500 g/ha: Echinochloa crus-galli, post-emergence, 312 h
Protocol: as §1, §2

[10] = Application Rate 500 g/Ha, Method A
[11] = Application Rate 500 g/Ha, Method A, read-out: Control of weed species after post-emergence application, EPHHL (100=total damage to plant; 0=no damage to plant)
[12] = Application Rate 500 g/Ha, Method A, read-out: Control of weed species after post-emergence application, SETFA (100=total damage to plant; 0=no damage to plant)
[13] = Application Rate 500 g/Ha, Method A, read-out: Control of weed species after post-emergence application, DIGSA (100=total damage to plant; 0=no damage to plant)
[14] = Application Rate 500 g/Ha, Method A, read-out: Control of weed species after post-emergence application, ELEIN (100=total damage to plant; 0=no damage to plant)
[15] = Application Rate 500 g/Ha, Method A, read-out: Control of weed species after post-emergence application, IPOHE (100=total damage to plant; 0=no damage to plant)
[16] = Application Rate 500 g/Ha, Method A, read-out: Control of weed species after post-emergence application, AMAPA (100=total damage to plant; 0=no damage to plant)
[17] = Application Rate 500 g/Ha, Method A, read-out: Control of weed species after post-emergence application, CHEAL (100=total damage to plant; 0=no damage to plant)
[18] = Application Rate 500 g/Ha, Method A, read-out: Control of weed species after post-emergence application, LOLPE (100=total damage to plant; 0=no damage to plant)
[19] = Application Rate 500 g/Ha, Method A, read-out: Control of weed species after post-emergence application, ECHCG (100=total damage to plant; 0=no damage to plant)
[20] = Application rate 500 g/Ha, 100=total damage to plant, 0=no damage to plant, read-out: Control of weed species after post-emergence application, EPHHL
[21] = Application rate 500 g/Ha, 100=total damage to plant, 0=no damage to plant, read-out: Control of weed species after post-emergence application, SETFA
[22] = Application rate 500 g/Ha, 100=total damage to plant, 0=no damage to plant, read-out: Control of weed species after post-emergence application, DIGSA
[23] = Application rate 500 g/Ha, 100=total damage to plant, 0=no damage to plant, read-out: Control of weed species after post-emergence application, ELEIN
[24] = Application rate 500 g/Ha, 100=total damage to plant, 0=no damage to plant, read-out: Control of weed species after post-emergence application, IPOHE
[25] = Application rate 500 g/Ha, 100=total damage to plant, 0=no damage to plant, read-out: Control of weed species after post-emergence application, CHEAL
[26] = Application rate 500 g/Ha, 100=total damage to plant, 0=no damage to plant, read-out: Control of weed species after post-emergence application, LOLPE
[27] = Application rate 500 g/Ha, 100=total damage to plant, 0=no damage to plant, read-out: Control of weed species after post-emergence application, ECHCG
[28] = Application rate 500 g/Ha, 100=total damage to plant, 0=no damage to plant, read-out: Control of weed species after post-emergence application, AMAPA

| SMILES | pest or weed control at 500 g/ha [1, 20] [%] | pest or weed control at 500 g/ha [2, 21] [%] | pest or weed control at 500 g/ha [3, 22] [%] | pest or weed control at 500 g/ha [4, 23] [%] | pest or weed control at 500 g/ha [5, 24] [%] | pest or weed control at 500 g/ha [7, 25] [%] | pest or weed control at 500 g/ha [8, 26] [%] | pest or weed control at 500 g/ha [9, 27] [%] | pest or weed control at 500 g/ha [6, 28] [%] | also measured |
| --- | --- | --- | --- | --- | --- | --- | --- | --- | --- | --- |
| COP(=O)(C[n+]1ccc(-c2ccncn2)cn1)OC.O=S(=O)([O-])C(F)(F)F [Compound A237] |  |  |  |  |  |  |  |  |  | Control of weed species after post-emergence application, EPHHL (100=total damage to plant; 0=no damage to plant) [1, 10]: 0; Control of weed species after post-emergence application, SETFA (100=total damage to plant; 0=no damage to plant) [2, 10]: 20; Control of weed species after post-emergence application, DIGSA (100=total damage to plant; 0=no damage to plant) [3, 10]: 50; Control of weed species after post-emergence application, ELEIN (100=total damage to plant; 0=no damage to plant) [4, 10]: 70; Control of weed species after post-emergence application, IPOHE (100=total damage to plant; 0=no damage to plant) [5, 10]: 50; Control of weed species after post-emergence application, AMAPA (100=total damage to plant; 0=no damage to plant) [6, 10]: 60; Control of weed species after post-emergence application, CHEAL (100=total damage to plant; 0=no damage to plant) [7, 10]: 10; Control of weed species after post-emergence application, LOLPE (100=total damage to plant; 0=no damage to plant) [8, 10]: 10; Control of weed species after post-emergence application, ECHCG (100=total damage to plant; 0=no damage to plant) [9, 10]: 10 |
| CC(C[n+]1ccc(-c2ncccn2)cn1)NS(=O)(=O)[O-] (stereo not drawn) [Compound A221] |  |  |  |  |  |  |  |  |  | pest or weed control at 500 g/ha [1, 11]: 90%; pest or weed control at 500 g/ha [2, 12]: 80%; pest or weed control at 500 g/ha [3, 13]: 100%; pest or weed control at 500 g/ha [4, 14]: 100%; pest or weed control at 500 g/ha [5, 15]: 60%; pest or weed control at 500 g/ha [6, 16]: 100%; pest or weed control at 500 g/ha [7, 17]: 90%; pest or weed control at 500 g/ha [8, 18]: 60%; pest or weed control at 500 g/ha [9, 19]: 60% |
| Cc1n[n+](CCC(=O)O)ccc1-c1ncccn1.O=C([O-])C(F)(F)F [Compound A132] | 30 | 100 | 90 | 90 | 10 | 30 | 50 | 70 |  | Control of weed species after post-emergence application, AMAPA ([6]; Application rate 500 g/Ha, 100=total damage to plant, 0=no damage to plant): 90 |
| O=S(=O)([O-])CC[n+]1ccc(-c2ncc(C(F)(F)F)cc2Cl)cn1 [Compound A175] |  |  |  |  |  |  |  |  |  | pest or weed control at 500 g/ha [1, 11]: 30%; pest or weed control at 500 g/ha [2, 12]: 30%; pest or weed control at 500 g/ha [3, 13]: 40%; pest or weed control at 500 g/ha [4, 14]: 40%; pest or weed control at 500 g/ha [5, 15]: 20%; pest or weed control at 500 g/ha [6, 16]: 30%; pest or weed control at 500 g/ha [7, 17]: 60%; pest or weed control at 500 g/ha [8, 18]: 10%; pest or weed control at 500 g/ha [9, 19]: 30% |
| COc1ccc(-c2cc[n+](CCCS(=O)(=O)[O-])nc2)nn1 [Compound A115] | 30 | 60 | 30 | 30 | 40 | 100 | 30 | 50 | 100 |  |
| O=C([O-])CC[n+]1ccc(-c2nccc(C(F)(F)F)n2)cn1 [Compound A39] | 90 | 40 | 70 | 80 | 0 | 90 | 60 | 30 | 100 |  |
| O=S(=O)([O-])CC[n+]1ccc(-c2ccc(C(F)(F)F)nn2)cn1 [Compound A122] | 100 | 60 | 40 | 90 | 70 | 100 | 70 | 40 | 100 |  |
| O=C(O)CC[n+]1ccc(-c2ccc(C(F)(F)F)nn2)cn1 [Compound A126] | 100 | 100 | 80 | 90 | 30 | 80 | 70 | 80 | 100 |  |
| Cc1nc(-c2cc[n+](CCC(=O)[O-])nc2)ncc1Cl [Compound A100] | 90 | 20 | 40 | 60 | 20 | 60 | 10 | 70 | 60 |  |
| Cc1ccnc(-c2cc[n+](CCS(=O)(=O)[O-])nc2)n1 [Compound A21] | 80 | 90 | 90 | 100 | 40 | 80 | 80 | 60 | 100 |  |
| O=C(O)CC[n+]1ccc(-c2ccnc(C(F)(F)F)n2)cn1 [Compound A118] | 90 | 70 | 90 | 70 | 60 | 80 | 90 | 40 | 80 |  |
| Cc1cnc(-c2cc[n+](CCC(=O)[O-])nc2)nc1C [Compound A96] | 90 | 70 | 40 | 40 | 40 | 20 | 60 | 70 | 70 |  |
| O=S(=O)([O-])CC[n+]1ccc(-c2ccnc(C(F)(F)F)c2)cn1 [Compound A165] |  |  |  |  |  |  |  |  |  | pest or weed control at 500 g/ha [1, 11]: 50%; pest or weed control at 500 g/ha [2, 12]: 60%; pest or weed control at 500 g/ha [3, 13]: 60%; pest or weed control at 500 g/ha [4, 14]: 70%; pest or weed control at 500 g/ha [5, 15]: 40%; pest or weed control at 500 g/ha [6, 16]: 100%; pest or weed control at 500 g/ha [7, 17]: 50%; pest or weed control at 500 g/ha [8, 18]: 60%; pest or weed control at 500 g/ha [9, 19]: 70% |
